Source: patent US20250243180A1, “TARGETED PROTEIN DEGRADATION” (Monte Rosa Therapeutics AG, priority 2023, published 2025)

What was measured:
IL-1β = test: Ex vivo whole blood stimulation (LPS/nigericin) IL-1β ELISA after dosing of NHP; assay type: in vivo, cynomolgus monkeys; conditions: oral 5 mg/kg for 5 days
Method: Within 0.5 h of blood collection from animals that received vehicle or Compound 14 at 5 mg/kg, whole blood was aliquoted into two 0.25 mL aliquots. One aliquot was used as baseline, and the other as the ex vivo stimulated condition. For stimulation, whole blood was incubated with 100 ng/mL Lipopolysaccharide from Escherichia coli 0111:B4 (LPS-EB) for 3 h, followed by 10 μM nigericin for 2 h. Plasma was then isolated and concentrations of IL-1β in plasma isolated from ex vivo whole blood stimulation were measured using the IL-1β ELISA R&D Systems kit (Cat. #DY1318), with 50 μL per sample diluted with 50 μL reagent diluent/well. After reading absorbance on plate reader, standard curve and sample IL-1β levels were analyzed using 4PL method. […]
In Table 9, suppression of ex vivo inflammasome activation following degradation of NEK7 in NHP is reported. Whole blood was isolated at the indicated time points from NHP dosed orally 5 mg/kg of Compound 14 over 5 days (day 1 through 5), n=2. Days 10 and 15 correspond to recovery period, 5 or 10 days after drug administration, respectively. Whole blood was stimulated ex vivo with 100 ng/mL LPS for 3 h and 10 μM nigericin for 2 h. Plasma was isolated and IL-1β was measured by ELISA. […]

NEK7 [1] = test: NEK7 level in PBMC of NHP after oral dosing; assay type: in vivo, cynomolgus monkeys; conditions: oral 5 mg/kg for 5 days
Method: Non-naïve male and female non-human primate (NHP) cynomolgus monkeys were orally administered with 5 consecutive daily doses of Compound 14 at 5 mg/kg, n=2 per dose group, 1 male and 1 female. Compound formulation was prepared on the day of administration in 0.5% methyl cellulose (4000 cps) in water and animals were fasted overnight. Plasma collected post dose were analyzed using a non GLP LC/MS/MS bioanalytical method to evaluate the compound concentration. Whole blood collected post dose were processed to PBMC and were analyzed using western blot method. Plasma pharmacokinetics and PMBC pharmacodynamics were assessed longitudinally throughout dosing and following dosing cessation.
In Table 8 compound 14 induces NEK7 degradation in vivo. NEK7 protein levels were assessed in PBMC isolated from NHP after oral administration for 5 consecutive days of Compound 14 at 5 mg/kg, n=2 per dose group. NEK7 levels were normalized to β-actin, as determined by JESS, at the indicated time points. NEK7 level at pre dose was normalized to 100%. Days 10 and 15 correspond to recovery period, 5 or 10 days after drug administration, respectively.

NEK7 [2] = test: NEK7 degradation in the brain of NHP (JESS); assay type: in vivo; conditions: oral 30 mg/kg for 7 days; for Average percent NEK7/β-actin in brain, relative to vehicle: 24 h after final dose
Method: Naïve NHP were orally administered with 7 consecutive daily dose of Compound 14 at 30 mg/kg, n=4 per dose group, 2 male and 2 female. Compound formulation was prepared on the day of administration in 0.5% methyl cellulose (4000 cps) in water and animals were fed twice a day; water was available ad libitum. Plasma collected posted dose on Day 1 and Day 7 were analyzed using a non GLP LC/MS/MS bioanalytical method to evaluate the compound concentration. Brain samples were harvested 24 h after final dose. Lysates for different brain regions (hippocampus, frontal cortex, and cerebellum) were prepared in M-PER lysis buffer and diluted at total protein concentration of 0.4 mg/mL in 0.1× sample buffer (12-230 kDa detection module; Protein Simple). The anti-NEK7 rabbit mAb (Abcam #AB133514) was used at 1:100 and anti-β-actin rabbit mAb (CST #5125) was used at 1:500. Samples were probed for NEK7 and β-actin protein levels by JESS, and quantified relative to vehicle control.
In Table 11, NEK7 protein degradation in brains of NHP following oral dosing of Compound 14 is reported. NHP received daily oral administration of 30 mg/kg of Compound 14 or vehicle for 7 days. For Compound 14 group, n=4 (two male and two female); for vehicle, n=2; samples taken 24 h post-final dose. Brains were harvested 24 h after final dose, sectioned by region (hippocampus, frontal cortex, cerebellum), and analyzed for NEK7 and beta-actin protein levels by JESS. The average percent of NEK7 was quantified by brain region and normalized to β-actin.

[3] = system: New Zealand White rabbits, MSU crystal gout model; test: In vivo rabbit gout model (intra-articular MSU): joint swelling and CD31 staining; conditions: daily prophylactic treatment
Method: MSU crystals were prepared by dissolving uric acid (Aladdin, cat #U105582) in boiling water (1 g in 200 mL with 6 mL of 1 N NaOH). PH value was adjusted to 7.2 by HCl. The solution was stirred and cooled to room temperature and stored at 4° C. overnight. The precipitate was filtered with filter paper and dried under low heat to obtain MSU crystals. New Zealand White rabbits received an intra-articular injection of 1 mL of MSU crystals (50 mg/mL) into both knees (MSU group) or PBS (as vehicle, control group). n=10 for MSU groups; n=6 for PBS group.
For immunohistochemistry, bone sections were stained with anti-CD31 (Abcam #ab9498) diluted at 1:500. The nuclei were stained with hematoxylin. Slides were scanned using LEICA Aperio GT450 at 400× magnification. The number of positive blood vessels were counted blindly.
(a) To determine NEK7 degradation, spleens and peripheral blood mononuclear cells (PBMC) were analyzed by JESS for NEK7 and normalized to α-Tubulin from five representative animals. (b) The degree of joint swelling was determined by caliper measurements at the indicated time points. (c) Rabbit bone tissue sections were stained and quantified for anti-CD31 immunohistochemistry. Results expressed as mean±SEM. Statistical analysis was performed using two-way ANOVA. The difference was considered significant when p<0.05.

Compound	Percent IL-1β relative to predose (IL-1β; Day 1, 6 h) [%]	Percent IL-1β relative to predose (IL-1β; Day 1, 24 h) [%]	Percent IL-1β relative to predose (IL-1β; Day 5, 6 h) [%]	Percent IL-1β relative to predose (IL-1β; Day 5, 24 h) [%]	Percent IL-1β relative to predose (IL-1β; Day 10, 24 h (recovery)) [%]	Percent IL-1β relative to predose (IL-1β; Day 15, 24 h (recovery)) [%]	Average percent NEK7/β-actin in PBMC, relative to predose (NEK7 [1]; Day 1, 6 h) [%]	Average percent NEK7/β-actin in PBMC, relative to predose (NEK7 [1]; Day 1, 24 h) [%]	Average percent NEK7/β-actin in PBMC, relative to predose (NEK7 [1]; Day 5, 6 h) [%]	Average percent NEK7/β-actin in PBMC, relative to predose (NEK7 [1]; Day 5, 24 h) [%]	Average percent NEK7/β-actin in PBMC, relative to predose (NEK7 [1]; Day 10, 24 h (recovery)) [%]	Average percent NEK7/β-actin in PBMC, relative to predose (NEK7 [1]; Day 15, 24 h (recovery)) [%]	degradation of NEK7 across three different brain regions (NEK7 [2])	Average percent NEK7/β-actin in brain, relative to vehicle (NEK7 [2]; Cerebellum) [%]	Average percent NEK7/β-actin in brain, relative to vehicle (NEK7 [2]; Frontal Cortex) [%]	Average percent NEK7/β-actin in brain, relative to vehicle (NEK7 [2]; Hippocampus) [%]	CD31 staining in bone tissue [3]	joint swelling induced by intra-articular MSU injection [3]
Cc1cnc(C(C)(C)C(=O)NCc2cc(Cl)c(C3CCC(=O)NC3=O)c(Cl)c2)nc1 (stereo not drawn) [Compound 14, N-(3,5-dichloro-4-(2,6-dioxopiperidin-3-yl)benzyl)-2-methyl-2-(5-methylpyrimidin-2-yl)-propanamide]	1	45	0	78	91.5	141	56	44	27	15	45	141	around 80%	18.2	20.3	21.3	–	–
CC(C)(C(=O)NCc1cc(Cl)c(C2CCC(=O)NC2=O)c(Cl)c1)c1ncc(C#N)cn1 (stereo not drawn) [Compound 16, 2-(5-cyanopyrimidin-2-yl)-N-(3,5-dichloro-4-(2,6-dioxopiperidin-3-yl)benzyl)-2-methyl-propanamide]	–	–	–	–	–	–	–	–	–	–	–	–	–	–	–	–	improvement	improvement
